From US12559492B2, “BRAF degraders” (C4 Therapeutics, Inc., priority 2020, dated 2026)

Biological target: BRAF^V600E protein (Homo sapiens, UniProt P15056, V600E)
Assay: HiBiT cellular BRAF V600E degradation assay
Assay type: cell-based
Settings: 24 h incubation; for DC50: A375.10 cells (HiBiT tag knocked in at N-terminal of BRAF V600E), concentration at which 50% of total cellular BRAF V600E is degraded; for Emax: A375.10 cells, Emax = amount of residual protein remaining in the cell after compound treatment, read-out: HiBit 24 h Emax

Sequence of BRAF^V600E protein (P15056 whole entry V600E): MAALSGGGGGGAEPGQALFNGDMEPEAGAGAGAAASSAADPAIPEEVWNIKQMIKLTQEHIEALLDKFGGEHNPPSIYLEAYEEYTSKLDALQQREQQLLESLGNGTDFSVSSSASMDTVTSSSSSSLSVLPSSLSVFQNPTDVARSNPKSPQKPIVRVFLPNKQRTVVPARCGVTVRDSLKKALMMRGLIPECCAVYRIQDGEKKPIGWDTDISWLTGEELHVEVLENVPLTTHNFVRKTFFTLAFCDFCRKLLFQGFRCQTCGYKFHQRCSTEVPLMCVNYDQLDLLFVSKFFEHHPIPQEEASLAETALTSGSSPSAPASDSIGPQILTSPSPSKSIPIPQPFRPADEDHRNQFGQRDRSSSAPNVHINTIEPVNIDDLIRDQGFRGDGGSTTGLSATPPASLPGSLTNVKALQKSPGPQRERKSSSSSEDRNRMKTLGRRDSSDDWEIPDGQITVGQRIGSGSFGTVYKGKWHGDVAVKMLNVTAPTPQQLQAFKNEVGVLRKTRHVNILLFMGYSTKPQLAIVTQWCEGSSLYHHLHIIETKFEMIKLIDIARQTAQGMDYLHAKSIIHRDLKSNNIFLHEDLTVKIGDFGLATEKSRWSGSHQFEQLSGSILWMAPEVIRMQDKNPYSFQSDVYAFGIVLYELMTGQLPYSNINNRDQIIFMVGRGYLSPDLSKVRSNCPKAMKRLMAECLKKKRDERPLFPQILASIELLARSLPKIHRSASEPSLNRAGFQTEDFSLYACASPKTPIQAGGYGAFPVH

Structure (SMILES) | DC50 [nM] | Emax [%]
CCN(C)S(=O)(=O)Nc1cccc(C(=O)c2c[nH]c3ncc(-c4ccc(N5CCN(C(=O)NC6CCN(c7ccc(NC8CCC(=O)NC8=O)cc7F)CC6)CC5)nc4)cc23)c1F (stereo not shown) [Example 154, N-[1-[4-[(2,6-dioxo-3-piperidyl)amino]-2-fluoro-phenyl]-4-piperidyl]-4-[5-[3-[3-[[ethyl(methyl)sulfamoyl]amino]-2-fluoro-benzoyl]-1H-pyrrolo[2,3-b]pyridin-5-yl]-2-pyridyl]piperazine-1-carboxamide] | 2.94 | 8.25
CCN(C)S(=O)(=O)Nc1ccc(F)c(C(=O)c2c[nH]c3ncc(-c4ccc(N5CCN(C(=O)CC6(O)CCN(c7ccc(NC8CCC(=O)NC8=O)cc7F)CC6)CC5)cc4)cc23)c1Cl (stereo not shown) [Example 155, 3-[2-chloro-3-[[ethyl(methyl)sulfamoyl]amino]-6-fluoro-benzoyl]-5-[4-[4-[2-[1-[4-[(2,6-dioxo-3-piperidyl)amino]-2-fluoro-phenyl]-4-hydroxy-4-piperidyl]acetyl]piperazin-1-yl]phenyl]-1H-pyrrolo[2,3-b]pyridine] | 6.33 | 10.9
CCN(C)S(=O)(=O)Nc1cccc(C(=O)c2c[nH]c3ncc(-c4ccc(N5CCN(C(=O)CC6(O)CCN(c7ccc(NC8CCC(=O)NC8=O)cc7Cl)CC6)CC5)nc4)cc23)c1F (stereo not shown) [Example 156, 5-[6-[4-[2-[1-[2-chloro-4-[(2,6-dioxo-3-piperidyl)amino]phenyl]-4-hydroxy-4-piperidyl]acetyl]piperazin-1-yl]-3-pyridyl]-3-[3-[[ethyl(methyl)sulfamoyl]amino]-2-fluoro-benzoyl]-1H-pyrrolo[2,3-b]pyridine] | 6.82 | 9.35
CCN(C)S(=O)(=O)Nc1ccc(F)c(C(=O)c2c[nH]c3ncc(-c4cnc(N5CCN(C(=O)CC6(OP(=O)(O)O)CCN(c7ccc(C8CCC(=O)NC8=O)cc7F)CC6)CC5)nc4)cc23)c1F (stereo not shown) [Example 158e, [1-[4-(2,6-dioxo-3-piperidyl)-2-fluoro-phenyl]-4-[2-[4-[5-[3-[3-[[ethyl(methyl)sulfamoyl]amino]-2,6-difluoro-benzoyl]-1H-pyrrolo[2,3-b]pyridin-5-yl]pyrimidin-2-yl]piperazin-1-yl]-2-oxo-ethyl]-4-piperidyl]dihydrogen phosphate] | 10.8 | 11.7
CCN(C)S(=O)(=O)Nc1ccc(F)c(C(=O)c2c[nH]c3ncc(-c4ccc(N5CCN(C(=O)CC6(O)CCN(c7ccc(C8CCC(=O)NC8=O)cc7F)CC6)CC5)nc4)cc23)c1F (stereo not shown) [Example 160, 5-[6-[4-[2-[1-[4-(2,6-dioxo-3-piperidyl)-2-fluoro-phenyl]-4-hydroxy-4-piperidyl]acetyl]piperazin-1-yl]-3-pyridyl]-3-[3-[[ethyl(methyl)sulfamoyl]amino]-2,6-difluoro-benzoyl]-1H-pyrrolo[2,3-b]pyridine] | 3.12 | 6.7
CCN(C)S(=O)(=O)Nc1ccc(F)c(C(=O)c2c[nH]c3ncc(-c4cnc(N5CCC(n6cc7c(n6)CN(c6ccc(NC8CCC(=O)NC8=O)cc6)CC7)CC5)nc4)cc23)c1F (stereo not shown) [Example 161, 6-[4-[(2,6-dioxo-3-piperidyl)amino]phenyl]-2-[1-[5-[3-[3-[[ethyl(methyl)sulfamoyl]amino]-2,6-difluoro-benzoyl]-1H-pyrrolo[2,3-b]pyridin-5-yl]pyrimidin-2-yl]-4-piperidyl]-5,7-dihydro-4H-pyrazolo[3,4-c]pyridine] | 14.6 | 8.46
CCN(C)S(=O)(=O)Nc1cccc(C(=O)c2c[nH]c3ncc(-c4cnc(N5CCN(C(=O)CC6(O)CCN(c7ccc(C8CCC(=O)NC8=O)cc7F)CC6)CC5)nc4)cc23)c1F (stereo not shown) [Example 162, 5-[2-[4-[2-[1-[4-(2,6-dioxo-3-piperidyl)-2-fluoro-phenyl]-4-hydroxy-4-piperidyl]acetyl]piperazin-1-yl]pyrimidin-5-yl]-3-[3-[[ethyl(methyl)sulfamoyl]amino]-2-fluoro-benzoyl]-1H-pyrrolo[2,3-b]pyridine] | 2.09 | 7.81
CCN(C)S(=O)(=O)Nc1ccc(F)c(C(=O)c2c[nH]c3ncc(-c4cnc(N5CCN(C(=O)CC6(O)CCN(c7ccc8c(N9CCC(=O)NC9=O)nn(C)c8c7)CC6)CC5)nc4)cc23)c1F [Example 163, 3-(2,4-dioxohexahydropyrimidin-1-yl)-6-[4-[2-[4-[5-[3-[3-[[ethyl(methyl)sulfamoyl]amino]-2,6-difluoro-benzoyl]-1H-pyrrolo[2,3-b]pyridin-5-yl]pyrimidin-2-yl]piperazin-1-yl]-2-oxo-ethyl]-4-hydroxy-1-piperidyl]-1-methyl-indazole] | 4.52 | 9.67
CCN(C)S(=O)(=O)Nc1ccc(F)c(C(=O)c2c[nH]c3ncc(-c4cnc(N5CCN(C(=O)CC6(O)CCN(c7ccc(N8CCC(=O)NC8=O)cc7F)CC6)CC5)nc4)cc23)c1F [Example 167, 5-[2-[4-[2-[1-[4-(2,4-dioxohexahydropyrimidin-1-yl)-2-fluoro-phenyl]-4-hydroxy-4-piperidyl]acetyl]piperazin-1-yl]pyrimidin-5-yl]-3-[3-[[ethyl(methyl)sulfamoyl]amino]-2,6-difluoro-benzoyl]-1H-pyrrolo[2,3-b]pyridine] | 7.05 | 9.37
CCN(C)S(=O)(=O)Nc1ccc(F)c(C(=O)c2c[nH]c3ncc(-c4ccc(N5CCN(C(=O)CC6(O)CCN(c7ccc(N8CCC(=O)NC8=O)cc7F)CC6)CC5)nc4)cc23)c1F [Example 168, 5-[6-[4-[2-[1-[4-(2,4-dioxohexahydropyrimidin-1-yl)-2-fluoro-phenyl]-4-hydroxy-4-piperidyl]acetyl]piperazin-1-yl]-3-pyridyl]-3-[3-[[ethyl(methyl)sulfamoyl]amino]-2,6-difluoro-benzoyl]-1H-pyrrolo[2,3-b]pyridine] | 3 | 10.2

The remaining molecules from weak to strong by DC50, led by results:

DC50 [nM] | Emax [%] | Structure (SMILES)
6.27 | 10.8 | CCN(C)S(=O)(=O)Nc1cccc(C(=O)c2c[nH]c3ncc(-c4cnc(N5CCN(C(=O)CC6(O)CCN(c7ccc(N8CCC(=O)NC8=O)cc7F)CC6)CC5)nc4)cc23)c1F [Example 165, 5-[2-[4-[2-[1-[4-(2,4-dioxohexahydropyrimidin-1-yl)-2-fluoro-phenyl]-4-hydroxy-4-piperidyl]acetyl]piperazin-1-yl]pyrimidin-5-yl]-3-[3-[[ethyl(methyl)sulfamoyl]amino]-2-fluoro-benzoyl]-1H-pyrrolo[2,3-b]pyridine]
6.19 | 8.52 | CCN(C)S(=O)(=O)Nc1ccc(F)c(C(=O)c2c[nH]c3ncc(-c4cnc(N5CCN(C(=O)CC6(O)CCN(c7ccc(NC8CCC(=O)NC8=O)cc7Cl)CC6)CC5)nc4)cc23)c1F (stereo not shown) [Example 157, 5-[2-[4-[2-[1-[2-chloro-4-[(2,6-dioxo-3-piperidyl)amino]phenyl]-4-hydroxy-4-piperidyl]acetyl]piperazin-1-yl]pyrimidin-5-yl]-3-[3-[[ethyl(methyl)sulfamoyl]amino]-2,6-difluoro-benzoyl]-1H-pyrrolo[2,3-b]pyridine]
5.87 | 7.61 | CCN(C)S(=O)(=O)Nc1ccc(F)c(C(=O)c2c[nH]c3ncc(-c4ccc(N5CCN(C(=O)CN6CCC(N7CCN(C8CCC(=O)NC8=O)C(=O)C7)C(F)(F)C6)CC5)nc4)cc23)c1F (stereo not shown) [Example 171, 5-[6-[4-[2-[4-[4-(2,6-dioxo-3-piperidyl)-3-oxo-piperazin-1-yl]-3,3-difluoro-1-piperidyl]acetyl]piperazin-1-yl]-3-pyridyl]-3-[3-[[ethyl(methyl)sulfamoyl]amino]-2,6-difluoro-benzoyl]-1H-pyrrolo[2,3-b]pyridine]
4.59 | 10.5 | CCN(C)S(=O)(=O)Nc1ccc(F)c(C(=O)c2c[nH]c3ncc(-c4ccc(N5CCN(C(=O)CC6(O)CCN(c7ccc(NC8CCC(=O)NC8=O)cc7F)CC6)CC5)nc4)cc23)c1Cl (stereo not shown) [Example 170, 3-[2-chloro-3-[[ethyl(methyl)sulfamoyl]amino]-6-fluoro-benzoyl]-5-[6-[4-[2-[1-[4-[(2,6-dioxo-3-piperidyl)amino]-2-fluoro-phenyl]-4-hydroxy-4-piperidyl]acetyl]piperazin-1-yl]-3-pyridyl]-1H-pyrrolo[2,3-b]pyridine]
3.51 | 6.33 | CCN(C)S(=O)(=O)Nc1cccc(C(=O)c2c[nH]c3ncc(-c4ccc(N5CCN(C(=O)CC6(O)CCN(c7ccc(C8CCC(=O)NC8=O)cc7F)CC6)CC5)nc4)cc23)c1F (stereo not shown) [Example 159, 5-[6-[4-[2-[1-[4-(2,6-dioxo-3-piperidyl)-2-fluoro-phenyl]-4-hydroxy-4-piperidyl]acetyl]piperazin-1-yl]-3-pyridyl]-3-[3-[[ethyl(methyl)sulfamoyl]amino]-2-fluoro-benzoyl]-1H-pyrrolo[2,3-b]pyridine]
2.82 | 7.34 | CCN(C)S(=O)(=O)Nc1ccc(F)c(C(=O)c2c[nH]c3ncc(-c4ccc(N5CCN(C(=O)CC6(O)CCN(c7ccc(N8CCC(=O)NC8=O)cc7F)CC6)CC5)cc4)cc23)c1F [Example 169, 5-[4-[4-[2-[1-[4-(2,4-dioxohexahydropyrimidin-1-yl)-2-fluoro-phenyl]-4-hydroxy-4-piperidyl]acetyl]piperazin-1-yl]phenyl]-3-[3-[[ethyl(methyl)sulfamoyl]amino]-2,6-difluoro-benzoyl]-1H-pyrrolo[2,3-b]pyridine]
2.31 | 10.2 | CCN(C)S(=O)(=O)Nc1cccc(C(=O)c2c[nH]c3ncc(-c4ccc(N5CCN(C(=O)CC6(O)CCN(c7ccc(N8CCC(=O)NC8=O)cc7F)CC6)CC5)nc4)cc23)c1F [Example 164, 5-[6-[4-[2-[1-[4-(2,4-dioxohexahydropyrimidin-1-yl)-2-fluoro-phenyl]-4-hydroxy-4-piperidyl]acetyl]piperazin-1-yl]-3-pyridyl]-3-[3-[[ethyl(methyl)sulfamoyl]amino]-2-fluoro-benzoyl]-1H-pyrrolo[2,3-b]pyridine]
